Results published in PubChem BioAssay AID1963845 (Molecular Pharmacology Branch, DTP, NCI, 2024).

System: 429239-143-T-J1-PDC complex spheroid viability
Assay: Anticancer human tumor 429239-143-T-J1-PDC patient-derived small cell lung carcinoma cell line growth inhibition [POLQ]
Settings: for IC50: curve of first compound; for viability, T/C: stronger effect = lower value
Method in brief: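 Growth inhibition in 3D: complex spheroids (tumor PDC, HUVEC, MSC) treated with POLQ inhibitor combinations; where Cmax unknown, highest tested concentration 10 microM, except SN-38 at 1 microM.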

[1] = second compound 0.0316 µM, first compound 0.0316 µM
[2] = second compound 0.0316 µM, first compound 0.1 µM
[3] = second compound 0.0316 µM, first compound 0.316 µM
[4] = second compound 0.0316 µM, first compound 1 µM
[5] = second compound 0.0316 µM, first compound 3.16 µM
[6] = second compound 0.0316 µM, first compound 10 µM
[7] = second compound 0.1 µM, first compound 0.0316 µM
[8] = second compound 0.1 µM, first compound 0.1 µM
[9] = second compound 0.1 µM, first compound 0.316 µM
[10] = second compound 0.1 µM, first compound 1 µM
[11] = second compound 0.1 µM, first compound 3.16 µM
[12] = second compound 0.1 µM, first compound 10 µM
[13] = second compound 0.316 µM, first compound 0.0316 µM
[14] = second compound 0.316 µM, first compound 0.1 µM
[15] = second compound 0.316 µM, first compound 0.316 µM
[16] = second compound 0.316 µM, first compound 1 µM
[17] = second compound 0.316 µM, first compound 3.16 µM
[18] = second compound 0.316 µM, first compound 10 µM
[19] = second compound 1 µM, first compound 0.0316 µM
[20] = second compound 1 µM, first compound 0.1 µM
[21] = second compound 1 µM, first compound 0.316 µM
[22] = second compound 1 µM, first compound 1 µM
[23] = second compound 1 µM, first compound 3.16 µM
[24] = second compound 1 µM, first compound 10 µM
[25] = second compound 3.16 µM, first compound 0.0316 µM
[26] = second compound 3.16 µM, first compound 0.1 µM
[27] = second compound 3.16 µM, first compound 0.316 µM
[28] = second compound 3.16 µM, first compound 1 µM
[29] = second compound 3.16 µM, first compound 3.16 µM
[30] = second compound 3.16 µM, first compound 10 µM
[31] = second compound 10 µM, first compound 0.0316 µM
[32] = second compound 10 µM, first compound 0.1 µM
[33] = second compound 10 µM, first compound 0.316 µM
[34] = second compound 10 µM, first compound 1 µM
[35] = second compound 10 µM, first compound 3.16 µM
[36] = second compound 10 µM, first compound 10 µM
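Also: luminescence signal used as surrogate measure of viable cells; spheroids exposed to compounds for seven days before readout.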
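For viability, T/C in this document: 100% = DMSO vehicle control viability as luminescence relative to vehicle.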

O=C(c1cc(Cc2n[nH]c(=O)c3ccccc23)ccc1F)N1CCN(C(=O)C2CC2)CC1 + Nc1ccc(C#CCN(C(=O)Cc2ncc(C(F)(F)F)cc2C(F)(F)F)c2ccc(F)cc2)nn1
IC50 (second compound 0.0316 µM): 4.18 µM | IC50 (second compound 0.1 µM): 3.96 µM | IC50 (second compound 0.316 µM): 4.09 µM | IC50 (second compound 1 µM): 4.13 µM | IC50 (second compound 3.16 µM): 4.25 µM | IC50 (second compound 10 µM): 3.6 µM | viability, T/C [1]: 101% | viability, T/C [2]: 98.4% | viability, T/C [3]: 92.4% | viability, T/C [4]: 84.9% | viability, T/C [5]: 64.8% | viability, T/C [6]: 7.77% | viability, T/C [7]: 96.6% | viability, T/C [8]: 104% | viability, T/C [9]: 90% | viability, T/C [10]: 95.9% | viability, T/C [11]: 60.8% | viability, T/C [12]: 6.66% | viability, T/C [13]: 104% | viability, T/C [14]: 99.1% | viability, T/C [15]: 91.3% | viability, T/C [16]: 81.2% | viability, T/C [17]: 65.8% | viability, T/C [18]: 9.12% | viability, T/C [19]: 105% | viability, T/C [20]: 94.4% | viability, T/C [21]: 88.5% | viability, T/C [22]: 84.9% | viability, T/C [23]: 64.8% | viability, T/C [24]: 8.72% | viability, T/C [25]: 97.6% | viability, T/C [26]: 93.4% | viability, T/C [27]: 90.8% | viability, T/C [28]: 95.2% | viability, T/C [29]: 64.3% | viability, T/C [30]: 8.47% | viability, T/C [31]: 102% | viability, T/C [32]: 92% | viability, T/C [33]: 93.5% | viability, T/C [34]: 88.9% | viability, T/C [35]: 55.4% | viability, T/C [36]: 6.04%

O=C(Nc1ccc(O)c(NS(=O)(=O)c2ccc(F)cc2)c1)c1ccc(-c2ccccc2)cc1 + Cc1cccc(N(C)C(=O)C2C(O)CCN2c2nc(C)cc(C(F)(F)F)c2C#N)c1
IC50 (second compound 0.0316 µM): > 10 µM | IC50 (second compound 0.1 µM): > 10 µM | IC50 (second compound 0.316 µM): > 10 µM | IC50 (second compound 1 µM): > 10 µM | IC50 (second compound 3.16 µM): > 10 µM | IC50 (second compound 10 µM): > 10 µM | viability, T/C [1]: 93.8% | viability, T/C [2]: 104% | viability, T/C [3]: 91.9% | viability, T/C [4]: 121% | viability, T/C [5]: 100% | viability, T/C [6]: 105% | viability, T/C [7]: 100% | viability, T/C [8]: 112% | viability, T/C [9]: 111% | viability, T/C [10]: 99.8% | viability, T/C [11]: 107% | viability, T/C [12]: 102% | viability, T/C [13]: 100% | viability, T/C [14]: 110% | viability, T/C [15]: 102% | viability, T/C [16]: 106% | viability, T/C [17]: 118% | viability, T/C [18]: 107% | viability, T/C [19]: 103% | viability, T/C [20]: 99.5% | viability, T/C [21]: 94.1% | viability, T/C [22]: 105% | viability, T/C [23]: 112% | viability, T/C [24]: 97% | viability, T/C [25]: 106% | viability, T/C [26]: 106% | viability, T/C [27]: 108% | viability, T/C [28]: 103% | viability, T/C [29]: 105% | viability, T/C [30]: 107% | viability, T/C [31]: 111% | viability, T/C [32]: 98.7% | viability, T/C [33]: 107% | viability, T/C [34]: 105% | viability, T/C [35]: 109% | viability, T/C [36]: 104%
